Test results published in US20230089715A1, “MASITINIB FOR THE TREATMENT OF A MULTIPLE SCLEROSIS PATIENT SUBPOPULATION” (AB SCIENCE, priority 2020, published 2023).

Test system: patients with progressive multiple sclerosis (PPMS or non-active SPMS)
Experiment: Study AB07002: randomized, double-blind, placebo-controlled phase 3 study, overall EDSS change from baseline
Type: in vivo, human
Design: key to LSM EDSS, MAS (overall EDSS change from baseline): LS mean EDSS change from baseline; positive value = worsening
Settings: 4.5 mg/kg/day oral, 96 weeks
Description: An international, multicenter, randomized, double-blind, placebo-controlled phase 3 study was conducted with the objective to evaluate oral masitinib at a dose of 4.5 mg/kg/day as a treatment for progressive multiple sclerosis (progressive MS), as defined hereinabove. […] Eligible patients were treated for 96 weeks with masitinib at a dose of 4.5 mg/kg/day (mg per kilo body weight per day) or with placebo. Primary endpoint was overall EDSS change from baseline using a repeated analysis of covariance model (i.e., ANCOVA GEE model on all measurements from week 12 (W12) to week 96 (W96)). Results are expressed as least-squares means difference, illustrating the progression of EDSS score, that is to say the change over time in the EDSS score or in other words the difference between the EDSS score at baseline and the EDSS score after treatment with masitinib or with placebo (a positive value indicates a worsening of the patient). Treatment-effect is reported as between-group difference (ΔLSM, negative value indicates a beneficial effect of treatment with masitinib as compared to treatment with placebo). […] Patients suffering from a disease other than MS that would better explain their neurological clinical signs and symptoms and/or lesions observed with magnetic resonance imaging (“MRI lesions”) were excluded. Subpopulation analyses of primary endpoint data from study AB07002 assessed the impact of the clinical markers ‘time from onset’ with respect to baseline (i.e., date of treatment initiation), derived from the estimated date of first clinical MS symptom(s), or ‘time from diagnosis’ with respect to baseline (i.e., date of treatment initiation), on masitinib efficacy in patients with progressive MS (see Example 3). ‘Time from onset’ is derived from the date (year/month/day, year/month, or year) of first clinical symptom(s) with duration calculated from date of treatment initiation. The date of first symptom(s) is typically determined retrospectively from medical history, for example from medical records and patient/caregiver historical recall of MS related symptoms following a clinically definite diagnosis. Imputation of missing data can be handled using various methods, one example of which is the following approach: if the information regarding day is missing, the day is considered to be the last day of the month; if the day and month are missing, the day is considered to be the last day of June. ‘Time from diagnosis’ of progressive MS, is ideally based on a clinically definite diagnosis of progressive MS as determined by a MS specialist neurologist. In practice it is derived from the date (year/month/day, year/month, or year) of first clinically definite diagnosis of progressive MS, i.e., PPMS or non-active SPMS, with duration calculated from date of treatment initiation. At the time of MS diagnosis, a provisional disease course should be specified (relapsing-remitting, primary progressive, or secondary progressive) and whether the course is active or not (non-active) and progressive or not based on the previous year's history. The phenotype should be periodically re-evaluated based on accumulated information. Comparison of subpopulation analyses with respect to the corresponding full analysis dataset (see Table 4) is reported as relative difference in ΔEDSS (R %). A large positive R % value indicates a subpopulation that receives greater benefit from masitinib treatment, while a negative R % value indicates a diminished treatment-effect or lack of discernable treatment-effect in the subpopulation.

[1] = PPMS, T(diag) > 2 Y and T(onset) > 5 Y
[2] = PPMS, complement T(diag) ≤ 2 Y or T(onset) ≤ 5 Y
[3] = Progressive MS, T(diag) > 2 Y and T(onset) > 5 Y

For `Cc1ccc(NC(=O)c2ccc(CN3CCN(C)CC3)cc2)cc1Nc1nc(-c2cccnc2)cs1` [masitinib, 4-(4-methylpiperazin-1-ylmethyl)-N-[4-methyl-3-(4-pyridin-3ylthiazol-2-ylamino)phenyl]benzamide], the “LSM EDSS, MAS (overall EDSS change from baseline)” value (PPMS, T(diag) > 1 Y) was −0.004, the “R % (relative difference in ΔEDSS with respect to full analysis dataset)” value (PPMS, T(diag) > 1 Y) was 31% and the “ΔEDSS (between group difference, treatment-effect vs placebo)” value (PPMS, T(diag) > 1 Y) was −0.174. The “LSM EDSS, MAS (overall EDSS change from baseline)” value [1] was −0.076, the “ΔEDSS (between group difference, treatment-effect vs placebo)” value [1] was −0.283 and the “R % (relative difference in ΔEDSS with respect to full analysis dataset)” value (PPMS, T(diag) > 2 Y and T(onset) > 5 Y, 4.5 mg/kg/day) was 113%. The “LSM EDSS, MAS (overall EDSS change from baseline)” value (PPMS, T(diag) > 2 Y) was −0.070, the “ΔEDSS (between group difference, treatment-effect vs placebo)” value (PPMS, T(diag) > 2 Y) was −0.246 and the “R % (relative difference in ΔEDSS with respect to full analysis dataset)” value (PPMS, T(diag) > 2 Y, 4.5 mg/kg/day) was 85%. For the same compound, the “LSM EDSS, MAS (overall EDSS change from baseline)” value (PPMS, T(diag) > 3 Y) was −0.099, the “ΔEDSS (between group difference, treatment-effect vs placebo)” value (PPMS, T(diag) > 3 Y) was −0.211 and the “R % (relative difference in ΔEDSS with respect to full analysis dataset)” value (PPMS, T(diag) > 3 Y, 4.5 mg/kg/day) was 59%. For the same compound, the “LSM EDSS, MAS (overall EDSS change from baseline)” value (PPMS, T(diag) > 4 Y) was 0.097, the “R % (relative difference in ΔEDSS with respect to full analysis dataset)” value (PPMS, T(diag) > 4 Y) was 25% and the “ΔEDSS (between group difference, treatment-effect vs placebo)” value (PPMS, T(diag) > 4 Y) was −0.166. The “LSM EDSS, MAS (overall EDSS change from baseline)” value (PPMS, T(diag) ≤ 1 Y) was −0.097, the “ΔEDSS (between group difference, treatment-effect vs placebo)” value (PPMS, T(diag) ≤ 1 Y) was 0.137 and the “LSM EDSS, MAS (overall EDSS change from baseline)” value (PPMS, T(diag) ≤ 2 Y) was 0.190. The “LSM EDSS, MAS (overall EDSS change from baseline)” value (PPMS, T(diag) ≤ 3 Y) was 0.070, the “ΔEDSS (between group difference, treatment-effect vs placebo)” value (PPMS, T(diag) ≤ 3 Y) was 0.009 and the “LSM EDSS, MAS (overall EDSS change from baseline)” value (PPMS, T(diag) ≤ 4 Y) was 0.099. The “ΔEDSS (between group difference, treatment-effect vs placebo)” value (PPMS, T(diag) ≤ 4 Y) was −0.089, the “LSM EDSS, MAS (overall EDSS change from baseline)” value (PPMS, T(onset) > 1 Y) was 0.040 and the “R % (relative difference in ΔEDSS with respect to full analysis dataset)” value (PPMS, T(onset) > 1 Y) was −6%. For the same compound, the “ΔEDSS (between group difference, treatment-effect vs placebo)” value (PPMS, T(onset) > 1 Y) was −0.125, the “LSM EDSS, MAS (overall EDSS change from baseline)” value (PPMS, T(onset) > 2 Y) was 0.026 and the “R % (relative difference in ΔEDSS with respect to full analysis dataset)” value (PPMS, T(onset) > 2 Y) was 5%. For the same compound, the “ΔEDSS (between group difference, treatment-effect vs placebo)” value (PPMS, T(onset) > 2 Y) was −0.139, the “LSM EDSS, MAS (overall EDSS change from baseline)” value (PPMS, T(onset) > 3 Y) was 0.021 and the “R % (relative difference in ΔEDSS with respect to full analysis dataset)” value (PPMS, T(onset) > 3 Y) was 31%. The “ΔEDSS (between group difference, treatment-effect vs placebo)” value (PPMS, T(onset) > 3 Y) was −0.174, the “LSM EDSS, MAS (overall EDSS change from baseline)” value (PPMS, T(onset) > 4 Y) was 0.028 and the “R % (relative difference in ΔEDSS with respect to full analysis dataset)” value (PPMS, T(onset) > 4 Y) was 22%. The “ΔEDSS (between group difference, treatment-effect vs placebo)” value (PPMS, T(onset) > 4 Y) was −0.162, the “LSM EDSS, MAS (overall EDSS change from baseline)” value (PPMS, T(onset) > 5 Y) was 0.029 and the “ΔEDSS (between group difference, treatment-effect vs placebo)” value (PPMS, T(onset) > 5 Y) was −0.214. For the same compound, the “R % (relative difference in ΔEDSS with respect to full analysis dataset)” value (PPMS, T(onset) > 5 Y, 4.5 mg/kg/day) was 61%, the “LSM EDSS, MAS (overall EDSS change from baseline)” value (PPMS, T(onset) ≤ 3 Y) was 0.111 and the “ΔEDSS (between group difference, treatment-effect vs placebo)” value (PPMS, T(onset) ≤ 3 Y) was 0.349. The “LSM EDSS, MAS (overall EDSS change from baseline)” value (PPMS, T(onset) ≤ 4 Y) was −0.082, the “ΔEDSS (between group difference, treatment-effect vs placebo)” value (PPMS, T(onset) ≤ 4 Y) was 0.051 and the “LSM EDSS, MAS (overall EDSS change from baseline)” value (PPMS, T(onset) ≤ 5 Y) was 0.314. For the same compound, the “LSM EDSS, MAS (overall EDSS change from baseline)” value [2] was 0.180, the “ΔEDSS (between group difference, treatment-effect vs placebo)” value [2] was 0.118 and the “LSM EDSS, MAS (overall EDSS change from baseline)” value (PPMS, full analysis dataset) was 0.030. The “ΔEDSS (between group difference, treatment-effect vs placebo)” value (PPMS, full analysis dataset, 4.5 mg/kg/day) was −0.133, the “ΔEDSS (between group difference, treatment-effect vs placebo)” value (PPMS, full analysis dataset, listed as Masitinib, 4.5 mg/kg/day) was “non-significant trend” and the “LSM EDSS, MAS (overall EDSS change from baseline)” value (Progressive MS, T(diag) > 1 Y) was −0.012. The “R % (relative difference in ΔEDSS with respect to full analysis dataset)” value (Progressive MS, T(diag) > 1 Y) was 10%, the “ΔEDSS (between group difference, treatment-effect vs placebo)” value (Progressive MS, T(diag) > 1 Y) was −0.109 and the “LSM EDSS, MAS (overall EDSS change from baseline)” value [3] was −0.057. For the same compound, the “ΔEDSS (between group difference, treatment-effect vs placebo)” value [3] was −0.162, the “R % (relative difference in ΔEDSS with respect to full analysis dataset)” value (Progressive MS, T(diag) > 2 Y and T(onset) > 5 Y, 4.5 mg/kg/day) was 64% and the “LSM EDSS, MAS (overall EDSS change from baseline)” value (Progressive MS, T(diag) > 2 Y) was −0.029. The “ΔEDSS (between group difference, treatment-effect vs placebo)” value (Progressive MS, T(diag) > 2 Y) was −0.133, the “R % (relative difference in ΔEDSS with respect to full analysis dataset)” value (Progressive MS, T(diag) > 2 Y, 4.5 mg/kg/day) was 34% and the “LSM EDSS, MAS (overall EDSS change from baseline)” value (Progressive MS, T(diag) > 3 Y) was −0.068. For the same compound, the “R % (relative difference in ΔEDSS with respect to full analysis dataset)” value (Progressive MS, T(diag) > 3 Y) was 39%, the “ΔEDSS (between group difference, treatment-effect vs placebo)” value (Progressive MS, T(diag) > 3 Y) was −0.138 and the “LSM EDSS, MAS (overall EDSS change from baseline)” value (Progressive MS, T(diag) > 4 Y) was −0.053. The “R % (relative difference in ΔEDSS with respect to full analysis dataset)” value (Progressive MS, T(diag) > 4 Y) was 48%, the “ΔEDSS (between group difference, treatment-effect vs placebo)” value (Progressive MS, T(diag) > 4 Y) was −0.147 and the “LSM EDSS, MAS (overall EDSS change from baseline)” value (Progressive MS, T(diag) ≤ 1 Y) was −0.099.
